Source: patent US11685782B2, “Methods of treating cancer using LSD1 inhibitors in combination with immunotherapy” (Children's Medical Center Corporation, priority 2017, dated 2023)

How the values were obtained:
[1] = test system: AGO2; experiment: Mass spectrometry of lysine methylation on FH-AGO2 purified from MCF-7 cells; assay type: cell-based, human; conditions: overexpressed FH-AGO2 from MCF-7 cells, mass spectrometry (FIG. 5I)
Text: FIG. 5I is a picture of immunoblots showing purified FH-AGO2 from MCF-7 cells treated by LSD1 KD or GSK-LSD1 as determined by mass spectrometry for the identification of lysine methylation. sh-Ctrl ([…]; SEQ ID NO: 156) and sh-LSD1, GSK-LSD1(VGK(me)[…]; SEQ ID NO: 157).
To investigate whether LSD1 regulates AGO2 stability by controlling AGO2 methylation, overexpressed FH-AGO2 from MCF-7 cells with or without LSD1 inhibition were purified and used for mass spectrometry analysis. […] To validate this finding, an antibody was raised that preferentially recognized AGO2 peptides mono-methylated at K726 (K726me1) compared with un-methylated or di-methylated peptides (FIG. 5J). Furthermore, this antibody detected increased K726me1 on ectopically expressed AGO2 when LSD1 was inhibited, which can be abrogated by substituting K726 with arginine (K726R) or alanine (K726A) (FIGS. 5K and 5L). […] To gain more insights into this regulation, an in vitro demethylation assay was performed using immunoprecipitated FH-LSD1, FH-LSD1-K661A (catalytically compromised LSD1), FH-AGO2 and FH-AGO2-K726R proteins purified from mammalian cells. FH-LSD1 but not FH-LSD1-K661A decreased K726me1 level on FH-AGO2, but had no observable effects on FH-AGO2-K726R (FIGS. 5N and 5O).

[2] = test system: MCF-7 cells; experiment: RT-qPCR of selected ERVs, interferons and ISGs in MCF-7 cells treated with GSK-LSD1 (compound screen); assay type: cell-based, human; conditions: GSK-LSD1 for 6 days, RT-qPCR normalized to GAPDH, relative to DMSO (FIG. 1A)
Experimental: FIG. 1A is a bar graph showing quantitative reverse transcription polymerase chain reaction (RT-qPCR) analysis of selected endogenous retroviruses (ERVs) (HERV-E, HERV-F, HERV-K, HML-2, and ERVL), IFNs (IFN-α, IFN-β and IL-28) and ISGs (ISG15 and OASL) in human MCF-7 breast cancer cells treated with or without GSK-LSD1 for 6 days. The RT-qPCR data were normalized to GAPDH and then relative to DMSO. RT-qPCR was performed in duplicates and repeated two to three times. Error bars represent the standard error of mean (SEM). *p<0.05, **p<0.01, ***p<0.001, ns, not significant, as determined by unpaired t-test.
MCF-7, T47D, B16, LLC and D4m cells were cultured in normal DMEM supplemented with 10% FBS and 1% penicillin/streptomycin in 5% CO2 incubator at 37° C. All cell lines were cultured in 5% CO2 incubator at 37° C., and passaged every 2-3 days. […]
All reagents, buffers and containers used for RNA work were RNase-free grade or treated with 0.1% v/v DEPC (Sigma-Aldrich cat #D5758) if applicable, to eliminate RNase contaminants in this section and other relevant sections. […] The obtained cDNA samples were diluted and used for real-time quantitative PCR (RT-qPCR). […]
Of note, the PCR primers detected overall transcript levels of the corresponding ERV subfamilies, which may be transcribed from multiple genomic loc. […]

Cl.Cl.c1ccc([C@@H]2C[C@H]2NC2CCNCC2)cc1 (relative stereo) [GSK-LSD1, rel-N-[(1R,2S)-2-Phenylcyclopropyl]-4-Piperidinamine hydrochloride (1:2)]
methylation of AGO2 lysine 726 (K726) [1]: consistently mono-methylated
up-regulation of selected ERVs, type I and type III interferons and interferon-stimulated genes (ISGs) [2]: significantly induce the up-regulation
